This is an account of results in patent publication US20060141486A1, “Porous substrates and arrays comprising the same” (priority 2004, published 2006).

Holding throughout (assay): GPCR array binding assay on flow-through microplate with GAPS porous substrate
Test [1] addresses T1, human muscarinic receptor subtype 1 (M1) (Homo sapiens, UniProt P11229).
T1 sequence (P11229 1-460): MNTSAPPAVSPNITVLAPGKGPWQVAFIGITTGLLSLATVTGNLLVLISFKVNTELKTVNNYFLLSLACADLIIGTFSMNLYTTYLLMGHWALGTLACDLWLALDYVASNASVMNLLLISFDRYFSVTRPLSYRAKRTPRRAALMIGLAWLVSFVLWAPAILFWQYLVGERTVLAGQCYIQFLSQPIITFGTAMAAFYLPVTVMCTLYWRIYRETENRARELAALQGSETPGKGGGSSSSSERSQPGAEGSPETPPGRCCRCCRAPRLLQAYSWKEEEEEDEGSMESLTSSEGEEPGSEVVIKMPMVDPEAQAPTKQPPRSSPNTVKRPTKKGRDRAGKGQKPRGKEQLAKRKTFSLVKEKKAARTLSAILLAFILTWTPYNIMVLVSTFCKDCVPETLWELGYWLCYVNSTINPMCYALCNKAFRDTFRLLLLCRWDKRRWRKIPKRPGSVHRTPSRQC
The method, then: (§1) 96 patches of silica-based porous substrate (GAPS™, Corning Inc.) were screen printed onto a 1737 glass support plate, and sintered at 695° C. The glass support was pre-fabricated by sand blasting to generate 192 microchannels. Under each porous patch, there are two microchannels which provide access to the porous patch from the opposite side of the glass support. Human muscarinic receptor subtype 1 (M1), delta opioid receptor subtype 2 (delta2), and muscarinic receptor subtype 2 (M2) were printed onto the GAPS™-porous substrate with a configuration such that each receptor was aligned in one column with four replicates (i.e., columns 1, 2 and 3 for M1, delta2 and M2 receptors, respectively; see FIG. 4A). […] After one hour incubation, a vacuum force was applied to remove the assay solution and the sequential washing solution before the array was finally being dried.

In test [2] the target is T2, human muscarinic receptor subtype 2 (M2) (Homo sapiens, UniProt P08172).
T2 sequence (P08172 1-466): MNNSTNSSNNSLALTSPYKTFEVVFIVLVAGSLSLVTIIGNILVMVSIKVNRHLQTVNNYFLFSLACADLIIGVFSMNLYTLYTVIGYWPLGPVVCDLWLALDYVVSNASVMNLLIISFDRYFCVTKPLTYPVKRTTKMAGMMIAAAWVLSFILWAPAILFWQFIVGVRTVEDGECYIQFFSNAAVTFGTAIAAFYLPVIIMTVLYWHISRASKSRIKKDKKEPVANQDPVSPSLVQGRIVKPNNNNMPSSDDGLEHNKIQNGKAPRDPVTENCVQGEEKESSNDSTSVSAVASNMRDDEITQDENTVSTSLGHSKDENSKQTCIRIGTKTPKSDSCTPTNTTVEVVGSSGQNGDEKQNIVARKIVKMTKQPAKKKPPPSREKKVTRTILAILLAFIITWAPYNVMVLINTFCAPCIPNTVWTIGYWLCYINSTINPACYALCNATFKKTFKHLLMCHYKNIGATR
As to the method: as §1

For test [3], the target named is human delta opioid receptor subtype 2 (delta2) (Homo sapiens, UniProt P41143). To be noted: 4 nM Cy5-naltrexone in cocktail of labeled ligands, one hour incubation, FIG. 4A. As to the method:
as §1

Setting [4] is: unlabeled telenzepine 2 μM (with naltrexone 4 μM), FIG. 4B.
Setting [5] is: 2 nM Cy3B-telenzepine in cocktail of labeled ligands, one hour incubation, FIG. 4A.

Chain of human delta opioid receptor subtype 2 (delta2) (P41143 whole entry): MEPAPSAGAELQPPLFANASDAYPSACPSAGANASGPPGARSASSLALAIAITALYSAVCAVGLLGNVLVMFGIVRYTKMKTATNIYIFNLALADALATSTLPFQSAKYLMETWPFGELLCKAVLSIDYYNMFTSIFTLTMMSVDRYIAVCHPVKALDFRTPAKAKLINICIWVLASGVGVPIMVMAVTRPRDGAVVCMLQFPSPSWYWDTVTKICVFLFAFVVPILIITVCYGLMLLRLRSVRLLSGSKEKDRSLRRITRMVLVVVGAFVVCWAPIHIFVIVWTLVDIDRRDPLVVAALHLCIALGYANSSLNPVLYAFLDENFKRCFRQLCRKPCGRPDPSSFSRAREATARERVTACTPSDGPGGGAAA

For `Cc1scc2c1N(C(=O)CN1CCN(C)CC1)c1ccccc1NC2=O` [telenzepine], the “inhibition of Cy3B-telenzepine binding to M1 receptor by unlabeled compound” value in test [1] (setting [4]) was “inhibited”. For the same compound, the “inhibition of Cy3B-telenzepine binding to M2 receptor by unlabeled compound” value in test [2] (setting [4]) was “inhibited”.
For the compound Cy3B-telenzepine, the “binding of labeled ligand to M1 receptor microspots (fluorescence)” value in test [1] (setting [5]) is on record as “strong binding”. Also, the “binding of labeled ligand to M2 receptor microspots (fluorescence)” value in test [2] (setting [5]) is given as “Weak binding signals”.
Take Cy5-naltrexone: the “binding of labeled ligand to delta2 receptor microspots (fluorescence)” value in test [3] is reported as “strong binding”.
